From patent publication US20230071840A1, “HETEROCYCLIC GLP-1 AGONISTS” (Gasherbrum Bio, Inc., priority 2020, published 2023)

These compounds were tested against GLP-1 Receptor (Homo sapiens, UniProt P43220) (assay: GLP-1R agonist cAMP stimulation assay (HEK293/GLP1R/CRE-LUC cells, cAMP dynamic 2 kit)). Conditions: GLP1R cAMP Stimulation DR: EC50 (nM).
Assay type: cell-based
Summary of the method: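 HEK293/CRE-Luc cells stably expressing human GLP-1R stimulated 30 min at 37 °C, 5% CO2. cAMP detected with HTRF cAMP-d2/anti-cAMP cryptate reagents after 1 h at room temperature; % activity normalised between vehicle and maximal control.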

Chain of GLP-1 Receptor (P43220 24-463, species assumed): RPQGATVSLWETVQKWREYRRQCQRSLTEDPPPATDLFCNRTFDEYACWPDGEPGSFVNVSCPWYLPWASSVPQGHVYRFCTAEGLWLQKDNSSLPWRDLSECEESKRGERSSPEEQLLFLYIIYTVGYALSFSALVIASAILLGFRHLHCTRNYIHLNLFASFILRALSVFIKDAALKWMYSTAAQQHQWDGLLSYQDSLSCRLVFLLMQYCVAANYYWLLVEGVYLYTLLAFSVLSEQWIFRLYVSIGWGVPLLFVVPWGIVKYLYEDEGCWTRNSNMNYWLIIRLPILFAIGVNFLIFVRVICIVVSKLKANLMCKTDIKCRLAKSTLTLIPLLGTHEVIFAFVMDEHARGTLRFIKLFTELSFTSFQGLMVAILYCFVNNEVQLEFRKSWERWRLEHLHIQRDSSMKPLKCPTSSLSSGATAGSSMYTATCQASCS

Compound | EC50 [nM]
CC(c1cccc(OC2CCN(Cc3nc4ccc(C(=O)O)nc4n3C[C@@H]3CCO3)CC2)n1)c1ccc(Cl)cc1F (stereo partly drawn) [Compound 128a, 2-{[4-({6-[1-(4-chloro-2-fluorophenyl)ethyl]pyridin-2-yl}oxy)piperidin-1-yl]methyl}-3-{[(2S)-oxetan-2-yl]methyl}-3H-imidazo[4,5-b]pyridine-5-carboxylic acid] | 1.2

Same assay, conditions: HEK293/CRE-Luc cell line stably expressing the GLP-1 Receptor; 30 min incubation at 37° C.; read-out: GLP1R cAMP Stimulation DR: EC50

Compound | EC50 [nM]
O=C(O)c1cnc2nc(CN3CCC(Oc4ccnc(Cc5ccc(Cl)cc5F)n4)CC3)n(C[C@@H]3CCO3)c2c1 [Compound 161a, 2-{[4-({2-[(4-chloro-2-fluorophenyl)methyl]pyrimidin-4-yl}oxy)piperidin-1-yl]methyl}-1-{[(2S)-oxetan-2-yl]methyl}-1H-imidazo[4,5-b]pyridine-6-carboxylic acid] | 0.18
N#Cc1ccc(Cc2cccc(OC3CCN(Cc4nc5ccc(C(=O)O)cc5n4C[C@@H]4CCO4)CC3)n2)c(F)c1 [Compound 135a, 2-{[4-({6-[(4-cyano-2-fluorophenyl)methyl]pyridin-2-yl}oxy)piperidin-1-yl]methyl}-1-{[(2S)-oxetan-2-yl]methyl}-1H-1,3-benzodiazole-6-carboxylic acid] | 1.8
O=C(O)c1ccc2nc(CN3CCC(Oc4nc(Cc5ccc(Cl)cc5F)ccc4Cl)CC3)n(C[C@@H]3CCO3)c2n1 [Compound 137a, 2-{[4-({3-chloro-6-[(4-chloro-2-fluorophenyl)methyl]pyridin-2-yl}oxy)piperidin-1-yl]methyl}-3-{[(2S)-oxetan-2-yl]methyl}-3H-imidazo[4,5-b]pyridine-5-carboxylic acid] | 51
O=C(O)c1ccc2nc(CN3CCC(Oc4ccnc(Cc5ccc(Cl)cc5)c4)CC3)n(C[C@@H]3CCO3)c2n1 [Compound 159a, 2-{[4-({2-[(4-chlorophenyl)methyl]pyridin-4-yl}oxy)piperidin-1-yl]methyl}-3-{[(2S)-oxetan-2-yl]methyl}-3H-imidazo[4,5-b]pyridine-5-carboxylic acid] | 2.3
N#Cc1ccc(Cc2cccc(OC3CCN(Cc4nc5ccc(C(=O)O)nc5n4C[C@@H]4CCO4)CC3)n2)c(F)c1 [Compound 136a, 2-{[4-({6-[(4-cyano-2-fluorophenyl)methyl]pyridin-2-yl}oxy)piperidin-1-yl]methyl}-3-{[(2S)-oxetan-2-yl]methyl}-3H-imidazo[4,5-b]pyridine-5-carboxylic acid] | 0.44
O=C(O)c1ccc2nc(CN3CCC(Oc4nc(Cc5ccc(Cl)cc5F)ncc4F)CC3)n(C[C@@H]3CCO3)c2n1 [Compound 151a, (S)-2-((4-((2-(4-chloro-2-fluorobenzyl)-5-fluoropyrimidin-4-yl)oxy)piperidin-1-yl)methyl)-3-(oxetan-2-ylmethyl)-3H-imidazo[4,5-b]pyridine-5-carboxylic acid] | 0.085
O=C(O)c1ccc2nc(C[C@H]3CC[C@H](Oc4ccnc(Cc5ccc(Cl)cc5)n4)CC3)n(C[C@@H]3CCO3)c2c1 [Compound 176a, 1-{[(2S)-oxetan-2-yl]methyl)-2-{[trans-4-({2-[(4-chlorophenyl)methyl]pyrimidin-4-yl}oxy)cyclohexyl]methyl}-1H-1,3-benzodiazole-6-carboxylic acid] | 0.37
O=C(O)c1ccc2nc(CN3CCC(Oc4cccc(Cc5ccc(Cl)cc5)c4F)CC3)n(C[C@@H]3CCO3)c2n1 [Compound 157a, 2-[(4-{3-[(4-chlorophenyl)methyl]-2-fluorophenoxy}piperidin-1-yl)methyl]-3-{[(2S)-oxetan-2-yl]methyl}-3H-imidazo[4,5-b]pyridine-5-carboxylic acid] | 42
O=C(O)c1ccc2nc(CN3CCC(C(F)(F)c4cccc(Cc5ccc(Cl)cc5F)n4)CC3)n(C[C@@H]3CCO3)c2n1 [Compound 173a, 2-{[4-({6-[(4-chloro-2-fluorophenyl)methyl]pyridin-2-yl}difluoromethyl)piperidin-1-yl]methyl}-3-{[(2S)-oxetan-2-yl]methyl}-3H-imidazo[4,5-b]pyridine-5-carboxylic acid] | 3.8
Cc1cc(Cc2ccc(Cl)cc2)nc(OC2CCN(Cc3nc4ccc(C(=O)O)nc4n3C[C@@H]3CCO3)CC2)c1 [Compound 154a, 2-{[4-({6-[(4-chlorophenyl)methyl]-4-methylpyridin-2-yl}oxy)piperidin-1-yl]methyl}-3-{[(2S)-oxetan-2-yl]methyl}-3H-imidazo[4,5-b]pyridine-5-carboxylic acid] | 24

Other lines, results leading:

EC50 [nM] | Compound
0.7 | O=c1[nH]c(-c2ccc3nc(CN4CCC(Oc5ccnc(Cc6ccc(Cl)cc6)n5)CC4)n(C[C@@H]4CCO4)c3n2)no1 [Compound 198a, (S)-3-(2-((4-((2-(4-chlorobenzyl)pyrimidin-4-yl)oxy)piperidin-1-yl)methyl)-3-(oxetan-2-ylmethyl)-3H-imidazo[4,5-b]pyridin-5-yl)-1,2,4-oxadiazol-5(4H)-one]
360 | O=C(O)c1ccc2nc(CN3CC4CC(Oc5ccnc(Cc6ccc(Cl)cc6)n5)CC4C3)n(C[C@@H]3CCO3)c2n1 (stereo partly drawn) [Compound 201a, 2-{[5-({2-[(4-chlorophenyl)methyl]pyrimidin-4-yl}oxy)-octahydrocyclopenta[c]pyrrol-2-yl]methyl}-3-{[(2S)-oxetan-2-yl]methyl}-3H-imidazo[4,5-b]pyridine-5-carboxylic acid]
0.6 | O=C(O)c1ccc2nc(Cc3ccc(Oc4ccnc(Cc5ccc(Cl)cc5)n4)cc3)n(C[C@@H]3CCO3)c2n1 [Compound 186a, 2-{[4-({2-[(4-chlorophenyl)methyl]pyrimidin-4-yl}oxy)phenyl]methyl}-3-{[(2S)-oxetan-2-yl]methyl}-3H-imidazo[4,5-b]pyridine-5-carboxylic acid]
0.29 | O=C(O)c1ccc2nc(Cc3ccc(Oc4nc(Cc5ccc(Cl)cc5)ncc4F)cc3F)n(C[C@@H]3CCO3)c2c1 [Compound 191a, 2-{[4-({2-[(4-chlorophenyl)methyl]-5-fluoropyrimidin-4-yl}oxy)-2-fluorophenyl]methyl}-1-{[(2S)-oxetan-2-yl]methyl}-1H-1,3-benzodiazole-6-carboxylic acid]
0.85 | O=C(O)c1ccc2nc(CN3CCC(Oc4nn(Cc5ccc(Cl)cc5F)cc4Cl)CC3)n(C[C@@H]3CCO3)c2n1 [Compound 183a, 2-{[4-({4-chloro-1-[(4-chloro-2-fluorophenyl)methyl]-1H-pyrazol-3-yl}oxy)piperidin-1-yl]methyl}-3-{[(2S)-oxetan-2-yl]methyl}-3H-imidazo[4,5-b]pyridine-5-carboxylic acid]
2.8 | COCCn1c(C[C@H]2CC[C@H](Oc3ccnc(Cc4ccc(Cl)cc4)n3)CC2)nc2ccc(C(=O)O)nc21 [Compound 179a, 3-(2-methoxyethyl)-2-{[trans-4-({2-[(4-chlorophenyl)methyl]pyrimidin-4-yl}oxy)cyclohexyl]methyl}-3H-imidazo[4,5-b]pyridine-5-carboxylic acid]
0.6 | COC(C)Cn1c(CN2CCC(Oc3ccnc(Cc4ccc(Cl)cc4)n3)CC2)nc2ccc(C(=O)O)nc21 (stereo not drawn) [Compound 195, 2-((4-((2-(4-chlorobenzyl)pyrimidin-4-yl)oxy)piperidin-1-yl)methyl)-3-(2-methoxypropyl)-3H-imidazo[4,5-b]pyridine-5-carboxylic acid]
